The subject of test [1] is propionate production in the rumen. The settings on record: oral administration to ruminants, Raun patents; cited from earlier work.
In another test the test system is rumen fluid. In words: In vitro rumen fluid incubation (18 h): volatile fatty acids and methane inhibition. The class given is cell-based, sheep. The settings on record: 39° C.; for C2 (acetate), Ratio Treated to Control / C3 (propionate), Ratio Treated to Control / C4 (butyrate), Ratio Treated to Control / Total VFA, Ratio Treated to Control: 50.0 ppm, pH 7.0; for inhibition at 50 ppm: Ovis aries, vs negative control. As for the experimental part:
Below is set forth the procedure followed for testing the compounds of the present invention in vitro. For these studies, rumen fistulated sheep were fed a concentrate diet which constituted 3 parts chopped corn and cob and 1 part alfalfa pellets.
1. Rumen fluid was removed from a fistulated sheep and strained through 4 layers of cheese cloth to remove large feed particles.
2. One part rumen fluid was added to 3 parts of modified McDougal's Artificial Saliva, the pH was adjusted to 7.0 and the saliva solution was prewarmed to 39° C. in a water bath and gassed with CO2.
(a) Modified McDougal Artificial Saliva composition:
To prepare (a), (i) 9.8 g NaHCO3, 11.7 g KHCO3, 5.1 g NaH2 PO4 and 4.08 g KH2 PO4 were diluted with two (2) liters of distilled H2 O; (ii) 20 mL of 100X salt solution was diluted to 1.33 l with tap H2 O; and (iii) mix (i) with (ii) to prepare the modified McDougal Artificial Saliva.
3. Add 0.01 g concentrate feed/1 mL of buffered rumen fluid (the buffered rumen fluid with concentrate should be stirred at all times to prevent the concentrate from settling).
4. Dispense 20 mL of buffered rumen fluid into 30 mL serum bottles that are being gassed with CO2. (A manifold that gases 12 bottles at a time was used.) The bottles should be in a 39° C. H2 O bath.
5. The test compounds, i.e., the compounds of the present invention, were first added to the bottles. After the addition of the buffered rumen fluid to all 12 bottles, the gassing cannulae were quickly removed and a butyl rubber stopper was inserted in each bottle. An aluminum seal was then placed on each bottle and crimped tight.
6. The sealed bottles were removed from the water bath, shaken and placed in a 39° C. incubator for 18 hours.
7. After the 18-hour incubation, the bottles were removed from the incubator and the head space gas was analyzed using a gas partitioner.
8. Four mL of rumen fluid was removed from each bottle for volatile fatty acid (VFA) analysis.
(a) The 4 mL sample was added to a centrifuge tube to which had previously been added 0.04 mL of 50 percent H2 SO4 and 1 mL 2-ethylbutyric acid (concentration 2 mL of 2-ethylbutyric acid/500 mL H2 O v/v).
(b) The mixture from (a) was centrifuged at 10000 xg for 20 minutes.
(c) The supernatant was removed and analyzed by gas-liquid chromatography. The above procedures were followed in all trials for testing the compounds of the present invention.

The subject of a further test is rumen. In words: In vivo rumen VFA trial in rumen fistulated sheep (90 days). Particulars: 90 day trial average. From the text:
Eight rumen fistulated sheep were used as test animals. Two sheep were alotted to each of three treatments and a control for each test. Group I was always the control group in each of the different trials. Groups II through IV had varying concentrations of compounds of the present invention added to the animals' feed. The feed ration in each trial constituted 3 parts chopped corn and cob and 1 part alfalfa pellets. Each sheep was offered 800 g daily of the feed in two equal portions. The particular compound and vitamin premix were mixed with chopped corn and cob. Any feed refusals were weighed back before each feeding and discarded. To prevent any mold growth, the feed was stored under refrigeration.
All animals in the various treatment groups were sampled for VFA's twice a week. Equal volumes of rumen fluid from each animal within a treatment were pooled for treatment VFA analysis. Fluid from individual animals was also analyzed for VFA. Individual animal VFA's within a treatment were averaged. This value was then averaged with pooled treatment VFA yielding the final treatment VFA value. All ratios and statistics were calculated using this final value. VFA's were calculated as the ratio treated to its respective pretreatment value. Each of the trials lasted for 90 days.

Where [2] appears, read: Table II, Group II, level 0.01 % of feed.
[3] abbreviates: Table II, Group III, level 0.05 % of feed (approx. 60 ppm in rumen).
The mark [4] stands for this setting: Table II, Group IV, level 0.025 % of feed.
Setting [5] is: Table III, Group II, level 0.05 % of feed (approx. 60 ppm in rumen).
The mark [6] stands for this setting: Table III, Group III, level 0.075 % of feed.
The mark [7] stands for this setting: Table III, Group IV, level 0.025 % of feed.

As for `C=C(NC(=O)C(=C)NC(=O)c1csc(C2=N[C@@H]3c4csc(n4)[C@H]4NC(=O)c5csc(n5)[C@H]([C@](C)(O)[C@@H](C)O)NC(=O)[C@H]5CSC(=N5)/C(=C/C)NC(=O)[C@H]([C@@H](C)O)NC(=O)c5csc(n5)[C@]3(CC2)NC(=O)[C@H](C)NC(=O)C(=C)NC(=O)[C@H](C)NC(=O)[C@H]([C@@H](C)CC)N[C@@H]2C=Cc3c([C@H](C)O)cc(nc3[C@H]2O)C(=O)O[C@@H]4C)n1)C(N)=O` [thiostrepton], the “propionate production (in words)” value in test [1] is “propionate production could be increased”.
With `CO[C@H]1CC[C@@H](O[C@H]2C[C@H]([C@]3(C)CC[C@]4(C[C@H](O)[C@@H](C)[C@@H]([C@@H](C)/C=C(\C)C(=O)[C@H](C)C[C@H](C)C(=O)O)O4)O3)O[C@]3(O[C@@H]([C@H]4O[C@@](O)(CO)[C@H](C)C[C@@H]4C)C[C@@H]3C)[C@@H]2C)O[C@@H]1C` [dianemycin], the “propionate production (in words)” value in test [1] is given as “propionate production could be increased”.
The term inhibition denotes the percentage by which the read-out fell short of the control. Lower therefore signals a weak effect. As to `CS(=O)(=O)NCCc1nnn[nH]1` [TCH2 CH2 NHSO2 CH3], in the test with rumen fluid, the “C2 (acetate), Ratio Treated to Control” value is given as 0.99; the “C3 (propionate), Ratio Treated to Control” value was 1.04; the “C4 (butyrate), Ratio Treated to Control” value is on record as 0.99; the “Total VFA, Ratio Treated to Control” value turned out to be 1.02. The compound also showed an inhibition at 50 ppm with rumen fluid of 0.7%.
As for `ClCc1nnn[nH]1` [TCH2 Cl, 5-Chloromethyltetrazole], in the test on rumen (setting [2]), the “C2 (acetate), Ratio of Treatment VFA to Pretreatment VFA” value (shortened to “C2 (acetate), Ratio of Treatment VFA”) is listed as 1.01; the “C3 (propionate), Ratio of Treatment VFA to Pretreatment VFA” value (shortened to “C3 (propionate), Ratio of Treatment VFA”) turned out to be 0.98; the “C4 (butyrate), Ratio of Treatment VFA to Pretreatment VFA” value (from here on “C4 (butyrate), Ratio of Treatment VFA”) was 1.02; the “Total VFA, Ratio of Treatment VFA to Pretreatment VFA” value (shortened to “Total VFA, Ratio of Treatment VFA”) turned out to be 0.96. For the same compound, in the test with rumen (setting [3]), the “C2 (acetate), Ratio of Treatment VFA” value came out at 0.97; the “C3 (propionate), Ratio of Treatment VFA” value was 1.05; the “C4 (butyrate), Ratio of Treatment VFA” value turned out to be 1.04; the “Total VFA, Ratio of Treatment VFA” value worked out at 0.88. Also, in the test on rumen (setting [4]), the “C2 (acetate), Ratio of Treatment VFA” value is recorded as 0.96; the “C3 (propionate), Ratio of Treatment VFA” value came out at 1.10; the “C4 (butyrate), Ratio of Treatment VFA” value is 1.05; the “Total VFA, Ratio of Treatment VFA” value amounted to 0.93. In the test with rumen fluid, the “C2 (acetate), Ratio Treated to Control” value came out at 0.74; the “C3 (propionate), Ratio Treated to Control” value was 1.49; the “C4 (butyrate), Ratio Treated to Control” value is recorded as 0.95; the “Total VFA, Ratio Treated to Control” value stood at 0.96. Moreover, in the test on rumen fluid, the inhibition at 50 ppm is 96.8%.
As to `O=C(CCl)NCCc1nnn[nH]1`, in the test with rumen fluid, the “C2 (acetate), Ratio Treated to Control” value is reported as 0.91; the “C3 (propionate), Ratio Treated to Control” value was 1.16; the “C4 (butyrate), Ratio Treated to Control” value was 1.05; the “Total VFA, Ratio Treated to Control” value was 1.02. This compound showed an inhibition at 50 ppm in the test on rumen fluid of 4.9%.
For `CS(=O)(=O)NCCC#N` [CNCH2 CH2 NHSO2 CH3], in that order: 0.7, 1.58, 1.13, 0.97 and 73.4%.
For `BrCCc1nnn[nH]1` [TCH2 CH2 Br], in that order: 0.73, 1.44, 1.25, 0.91 and 91.3%.
For `Cc1ccc(S(=O)(=O)OCCc2nnn[nH]2)cc1`, in that order: 0.92, 1.23, 0.95, 1.07 and 8%.
On to `CC[C@@]1([C@@H]2O[C@@H]([C@H]3O[C@@](O)(CO)[C@H](C)C[C@@H]3C)C[C@@H]2C)CC[C@H]([C@]2(C)CC[C@]3(C[C@H](O)[C@@H](C)[C@@H]([C@@H](C)[C@@H](OC)[C@H](C)C(=O)O)O3)O2)O1` [monensin], for which, in test [1], the “propionate production (in words)” value is “propionate production could be increased”.
As to `ClCCc1nnn[nH]1` [TCH2 CH2 Cl, 5-(2-Chloroethyl)Tetrazole], in the test with rumen (setting [5]), the “C2 (acetate), Ratio of Treatment VFA” value came out at 0.97; the “C3 (propionate), Ratio of Treatment VFA” value was 1.06; the “C4 (butyrate), Ratio of Treatment VFA” value came out at 1.11; the “Total VFA, Ratio of Treatment VFA” value came out at 0.88. In the test with rumen (setting [6]), the “C2 (acetate), Ratio of Treatment VFA” value was found to be 0.92; the “C3 (propionate), Ratio of Treatment VFA” value is 1.24; the “C4 (butyrate), Ratio of Treatment VFA” value is 1.05; the “Total VFA, Ratio of Treatment VFA” value is listed as 0.89. Besides, in the test with rumen (setting [7]), the “C2 (acetate), Ratio of Treatment VFA” value is 0.97; the “C3 (propionate), Ratio of Treatment VFA” value is listed as 1.00; the “C4 (butyrate), Ratio of Treatment VFA” value is 1.20; the “Total VFA, Ratio of Treatment VFA” value was 1.05. Moreover, in the test with rumen fluid, the “C2 (acetate), Ratio Treated to Control” value came out at 0.76; the “C3 (propionate), Ratio Treated to Control” value was determined as 1.48; the “C4 (butyrate), Ratio Treated to Control” value is 0.92; the “Total VFA, Ratio Treated to Control” value is given as 1.03. The same compound came in with an inhibition at 50 ppm in the test on rumen fluid of 74.6%.

The values are drawn from patent US4461772A, “Additives for improving ruminant feed utilization” (SDS Biotech Corporation, priority 1983, dated 1984).
